Measured values as given in patent publication US8029768B2, “Treatment of respiratory diseases” (Sosei R&D Ltd., priority 2000, dated 2011).

Columns and labels:
[1] = test system: asthma; details: inhaled, Walker et al. 1987; cited from earlier work
[2] = about 1 mg sample on sinter, 195 ml water reservoir, FIG. 1

time at which the maximum concentration is achieved [2]: 10 min | concentration of glycopyrrolate in the reservoir at 5 minutes ([2]; first time point 5 minutes): greater than 10 mg/l
Compound: C[N+]1(C)CCC(OC(=O)C(O)(c2ccccc2)C2CCCC2)C1 (stereo not shown) [glycopyrrolate]
duration of effective treatment [1]: up to 12 hours | duration of effective treatment that appears to be maximal [1]: up to 8 hours
